Assay results: patent US6861390B2, “Derivatives of UK-2A” (priority 2001, dated 2005)

Assays:
[1] = test system: Rhizoctonia solani (RHIZSO); assay: microbe, parasite or virus in culture; format: cell-based; settings: read-out: T10 RHIZSO in vitro Growth Inhibition
[2] = test system: Stagonospora nodorum (Leptosphaeria nodorum, LEPTNO); assay: microbe, parasite or virus in culture; format: cell-based; settings: Parastagonospora nodorum, read-out: T7 LEPTNO in vitro Growth Inhibition
[3] = test system: Ustilago maydis (USTIMA); assay: microbe, parasite or virus in culture; format: cell-based; settings: Mycosarcoma maydis, read-out: T12 USTIMA in vitro Growth Inhibition
[4] = test system: Phytophthora infestans (PHYTIN); assay: whole plant or invertebrate; settings: in Solanum lycopersicum, 24 h, read-out: T3 PHYTIN in vivo 1 Day Protectant, control of fungal infection
[5] = test system: Septoria tritici (SEPTTR); assay: Leaf Blotch of Wheat, whole plant 24 Hour Protectant (T6); settings: Zymoseptoria tritici; wheat (cultivar Monon), sprayed at 100 ppm, inoculated after 24 hours; read-out: T6 SEPTTR in vivo 1 Day Protectant, control of fungal infection
[6] = test system: Leptosphaeria nodorum (LEPTNO); assay: Glume Blotch of Wheat, whole plant 24 Hour Protectant (T2); settings: Parastagonospora nodorum; wheat (cultivar Yuma), sprayed at 100 ppm, inoculated after 24 hours; read-out: T2 LEPTNO in vivo 1 Day Protectant, control of fungal infection
[7] = test system: Phytophthora infestans (PHYTIN); assay: microbe, parasite or virus in culture; format: cell-based; settings: in Secale cereale, read-out: T8 PHYTIN in vitro Growth Inhibition
[8] = test system: Mycosphaerella graminicola (Septoria tritici, SEPTTR); assay: microbe, parasite or virus in culture; format: cell-based; settings: Zymoseptoria tritici, read-out: T11 SEPTTR in vitro Growth Inhibition
[9] = test system: Erysiphe graminis (ERYSGT); assay: Powdery Mildew of Wheat, whole plant 24 Hour Protectant (T1); settings: Blumeria graminis, in Triticum aestivum, read-out: T1 ERYSGT in vivo 1 Day Protectant, control of fungal infection
Description: Compound formulation was accomplished by dissolving technical materials in acetone, with serial dilutions then made in acetone to obtain desired concentrations. Final treatment volumes were obtained by adding 9 volumes 0.01% Triton X-100.
Powdery Mildew of Wheat (Erysiphe graminis—ERYSGT) (24 Hour Protectant): Wheat (cultivar Monon) was grown in a soilless peat-based potting mixture (“Metromix”) and mineral soil (50/50 mix) until the seedlings were 10-20 cm tall. These plants were then sprayed to run-off with the test compound at a rate of 100 ppm. After 24 hours the test plants were inoculated by dusting with conidia from powdery mildew infected wheat plants. The plants were then transferred to the greenhouse until disease developed on the untreated control plants.

[10] = test system: Puccinia recondita (PUCCRT); assay: Brown Rust of Wheat, whole plant 24 Hour Protectant (T5); settings: wheat (cultivar Yuma), sprayed at 100 ppm, inoculated after 24 hours, read-out: T5 PUCCRT in vivo 1 Day Protectant, control of fungal infection
[11] = test system: Magnaporthe grisea (Pyricularia oryzae, PYRIOR); assay: microbe, parasite or virus in culture; format: cell-based; settings: read-out: T9 PYRIOR in vitro Growth Inhibition

| SMILES | inhibition at 25 ppm [1] | inhibition at 25 ppm [2] | inhibition at 25 ppm [3] | pest or weed control at 100 ppm [4] | pest or weed control at 100 ppm [5] | pest or weed control at 100 ppm [6] | inhibition at 25 ppm [7] | inhibition at 25 ppm [8] | pest or weed control at 100 ppm [9] | pest or weed control at 100 ppm [10] | inhibition at 25 ppm [11] |
| --- | --- | --- | --- | --- | --- | --- | --- | --- | --- | --- | --- |
| COc1ccnc(C(=O)N[C@H]2COC(=O)[C@H](Cc3ccccc3)[C@@H](OC(=O)C(C)C)[C@H](C)OC2=O)c1OCOCCOC(C)=O [Compound 17] | > 80% | > 80% | < 80% | < 25% | 75 to 100% | 75 to 100% | < 80% | > 80% | < 25% | 75 to 100% | < 80% |
| CCC(=O)OCOc1c(OC)ccnc1C(=O)N[C@H]1COC(=O)[C@H](Cc2ccccc2)[C@@H](OC(=O)C(C)C)[C@H](C)OC1=O [Compound 21] | < 80% | > 80% | < 80% | < 25% | 75 to 100% | 75 to 100% | < 80% | > 80% | 25 to 74% | 75 to 100% | > 80% |
| COCC(=O)OCOc1c(OC)ccnc1C(=O)N[C@H]1COC(=O)[C@H](Cc2ccccc2)[C@@H](OC(=O)C(C)C)[C@H](C)OC1=O [Compound 30] | > 80% | > 80% | > 80% | < 25% | 75 to 100% | 75 to 100% | < 80% | < 80% | 75 to 100% | 75 to 100% | > 80% |
| COC(=O)CCC(=O)OCOc1c(OC)ccnc1C(=O)N[C@H]1COC(=O)[C@H](Cc2ccccc2)[C@@H](OC(=O)C(C)C)[C@H](C)OC1=O [Compound 32] | < 80% | > 80% | < 80% | < 25% | 75 to 100% | 75 to 100% | < 80% | < 80% | 25 to 74% | 75 to 100% | > 80% |
| COc1ccnc(C(=O)N[C@H]2COC(=O)[C@H](Cc3ccccc3)[C@@H](OC(=O)C(C)C)[C@H](C)OC2=O)c1OCOC(=O)C1CCCO1 (some centres unmarked) [Compound 34] | < 80% | > 80% | < 80% | < 25% | 75 to 100% | 75 to 100% | < 80% | < 80% | 25 to 74% | 75 to 100% | < 80% |
| CCCOCC(=O)OCOc1c(OC)ccnc1C(=O)N[C@H]1COC(=O)[C@H](Cc2ccccc2)[C@@H](OC(=O)C(C)C)[C@H](C)OC1=O [Compound 35] | > 80% | > 80% | < 80% | < 25% | 75 to 100% | 75 to 100% | < 80% | > 80% | 25 to 74% | 75 to 100% | > 80% |
| COc1ccnc(C(=O)N[C@H]2COC(=O)[C@H](Cc3ccccc3)[C@@H](OC(=O)C(C)C)[C@H](C)OC2=O)c1OCOC(=O)COC(C)C [Compound 36] | < 80% | > 80% | < 80% | < 25% | 75 to 100% | 75 to 100% | < 80% | > 80% | < 25% | 75 to 100% | > 80% |
| CCCCOCC(=O)OCOc1c(OC)ccnc1C(=O)N[C@H]1COC(=O)[C@H](Cc2ccccc2)[C@@H](OC(=O)C(C)C)[C@H](C)OC1=O [Compound 37] | < 80% | > 80% | > 80% | < 25% | 75 to 100% | 75 to 100% | < 80% | > 80% | 25 to 74% | 75 to 100% | > 80% |
| COc1ccnc(C(=O)N[C@H]2COC(=O)[C@H](Cc3ccccc3)[C@@H](OC(=O)C(C)C)[C@H](C)OC2=O)c1OCOC(=O)COCC(C)C [Compound 38] | < 80% | > 80% | < 80% | < 25% | 75 to 100% | 75 to 100% | < 80% | > 80% | 25 to 74% | 75 to 100% | > 80% |
| CCC(C)OCC(=O)OCOc1c(OC)ccnc1C(=O)N[C@H]1COC(=O)[C@H](Cc2ccccc2)[C@@H](OC(=O)C(C)C)[C@H](C)OC1=O (some centres unmarked) [Compound 39] | < 80% | > 80% | < 80% | < 25% | 75 to 100% | 75 to 100% | < 80% | > 80% | 25 to 74% | 75 to 100% | > 80% |
| COCCOCC(=O)OCOc1c(OC)ccnc1C(=O)N[C@H]1COC(=O)[C@H](Cc2ccccc2)[C@@H](OC(=O)C(C)C)[C@H](C)OC1=O [Compound 40] | > 80% | > 80% | > 80% | < 25% | 75 to 100% | 75 to 100% | < 80% | > 80% | 25 to 74% | 75 to 100% | > 80% |
| COc1ccnc(C(=O)N[C@H]2COC(=O)[C@H](Cc3ccccc3)[C@@H](OC(=O)C(C)C)[C@H](C)OC2=O)c1OCOC(=O)COC1CCCC1 [Compound 41] | < 80% | > 80% | > 80% | < 25% | 75 to 100% | 75 to 100% | < 80% | > 80% | 25 to 74% | 75 to 100% | > 80% |
| COc1ccnc(C(=O)N[C@H]2COC(=O)[C@H](Cc3ccccc3)[C@@H](OC(=O)C(C)C)[C@H](C)OC2=O)c1OCOC(=O)COc1ccccc1 [Compound 42] | < 80% | > 80% | < 80% | < 25% | < 25% | 75 to 100% | < 80% | > 80% | < 25% | 75 to 100% | > 80% |
| COc1ccnc(C(=O)N[C@H]2COC(=O)[C@H](Cc3ccccc3)[C@@H](OC(=O)C(C)C)[C@H](C)OC2=O)c1OC1OC(=O)c2ccccc21 (some centres unmarked) [Compound 43] | < 80% | > 80% | < 80% | < 25% | 75 to 100% | 75 to 100% | < 80% | > 80% | 25 to 74% | 75 to 100% | < 80% |
| CCOC(=O)OCOc1c(OC)ccnc1C(=O)N[C@H]1COC(=O)[C@H](Cc2ccccc2)[C@@H](OC(=O)C(C)C)[C@H](C)OC1=O [Compound 45] | < 80% | > 80% | < 80% | 25 to 74% | 75 to 100% | 75 to 100% | < 80% | < 80% | 25 to 74% | 75 to 100% | > 80% |
| CCCOC(=O)OCOc1c(OC)ccnc1C(=O)N[C@H]1COC(=O)[C@H](Cc2ccccc2)[C@@H](OC(=O)C(C)C)[C@H](C)OC1=O [Compound 46] | < 80% | > 80% | < 80% | < 25% | 75 to 100% | 75 to 100% | < 80% | < 80% | 25 to 74% | 75 to 100% | > 80% |
